From ChEMBL document CHEMBL1201862, “PubChem BioAssay data set” (2004)
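Results reflect a 48-hour exposure of cells in 96-well plates to compound at five concentrations. GI50 is the concentration that inhibits growth by half.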 The source made the active and inactive calls. No stated cut-off is given here; in the data, active = GI50 up to about 1.1 µM and inactive = higher.

Key:
Assay in all cases: NCI tumour cell line growth inhibition, 48 h
[1] = system: RXF 393
[2] = system: BT-549
[3] = system: IGROV-1
[4] = system: 786-0
[5] = system: SW-620
[6] = system: HT-29
[7] = system: UACC-257
[8] = system: NCI-H226
[9] = system: SN12C
[10] = system: NCI/ADR-RES
[11] = system: MDA-MB-231
[12] = system: UACC-62
[13] = system: RPMI-8226
[14] = system: CCRF-CEM
[15] = system: COLO 205
[16] = system: M14
[17] = system: A549
[18] = system: NCI-H23
[19] = system: HCT-116
[20] = system: SF-539
[21] = system: Malme-3M
[22] = system: OVCAR-4
[23] = system: HCT-15
[24] = system: HOP-62
[25] = system: DU-145
[26] = system: EKVX
[27] = system: HCC 2998
[28] = system: Hs-578T
[29] = system: OVCAR-3
[30] = system: UO-31
[31] = system: CAKI-1
[32] = system: NCI-H460
[33] = system: OVCAR-5
[34] = system: SNB-19
[35] = system: SK-MEL-28
[36] = system: LOX IMVI
[37] = system: SF-268
[38] = system: MDA-N
[39] = system: SF-295
[40] = system: A498
[41] = system: K562
[42] = system: SK-MEL-5
[43] = system: KM12
[44] = system: T47D
[45] = system: ACHN
[46] = system: HOP-92
[47] = system: U-251
[48] = system: HL-60
[49] = system: MOLT-4
[50] = system: MCF7
[51] = system: PC-3
[52] = system: OVCAR-8
[53] = system: TK-10
[54] = system: SK-OV-3
[55] = system: MDA-MB-435
[56] = system: NCI-H522
[57] = system: SNB-75
[58] = system: SK-MEL-2

## NC(=O)NC1C(c2ccccc2)=C1c1ccccc1
[1]
  GI50: 3.41 µM (inactive)
[2]
  GI50: 12.6 µM (inactive)
[3]
  GI50: 12.7 µM (inactive)
[4]
  GI50: 22.4 µM (inactive)
[5]
  GI50: 13.7 µM (inactive)
[6]
  GI50: 21.7 µM (inactive)
[7]
  GI50: 18.6 µM (inactive)
[8]
  GI50: 5.08 µM (inactive)
[9]
  GI50: 13.6 µM (inactive)
[10]
  GI50: 10.5 µM (inactive)
[11]
  GI50: 12.6 µM (inactive)
[12]
  GI50: 9.23 µM (inactive)
[13]
  GI50: 7.21 µM (inactive)
[14]
  GI50: 5.47 µM (inactive)
[15]
  GI50: 13 µM (inactive)
[16]
  GI50: 19.1 µM (inactive)
[17]
  GI50: 27.4 µM (inactive)
[18]
  GI50: 21.2 µM (inactive)
[19]
  GI50: 15.7 µM (inactive)
[20]
  GI50: 15.4 µM (inactive)
[21]
  GI50: 21.1 µM (inactive)
[22]
  GI50: 15.3 µM (inactive)
[23]
  GI50: 13.6 µM
[24]
  GI50: 36.4 µM (inactive)
[25]
  GI50: 41.3 µM (inactive)
[26]
  GI50: 26.8 µM (inactive)
[27]
  GI50: 16.5 µM (inactive)
[28]
  GI50: 27.6 µM (inactive)
[29]
  GI50: 28.9 µM (inactive)
[30]
  GI50: 13.6 µM (inactive)
[31]
  GI50: 18.9 µM (inactive)
[32]
  GI50: 15.5 µM (inactive)
[33]
  GI50: 23.2 µM (inactive)
[34]
  GI50: 34.8 µM (inactive)
[35]
  GI50: 17.1 µM (inactive)
[36]
  GI50: 13.5 µM (inactive)
[37]
  GI50: 13.4 µM (inactive)
[38]
  GI50: 14.5 µM (inactive)
[39]
  GI50: 17.6 µM (inactive)
[40]
  GI50: 15 µM (inactive)
[41]
  GI50: 15.4 µM (inactive)
[42]
  GI50: 11.1 µM (inactive)
[43]
  GI50: 19.2 µM (inactive)
[44]
  GI50: 69.5 µM (inactive)
[45]
  GI50: 10.6 µM (inactive)
[46]
  GI50: 11.9 µM (inactive)
[47]
  GI50: 13.9 µM (inactive)
[48]
  GI50: 31.6 µM (inactive)
[49]
  GI50: 4.88 µM (inactive)
[50]
  GI50: 14.7 µM (inactive)
[51]
  GI50: 17.1 µM (inactive)
[52]
  GI50: 12.5 µM (inactive)
[53]
  GI50: 18 µM (inactive)
[54]
  GI50: 15.6 µM (inactive)
[55]
  GI50: 18.7 µM (inactive)

## CC(C)(C)C1(O)C=C(O)C(=O)N1NC(=O)c1ccccc1Nc1ccccc1 (configuration not stated)
[56]
  GI50: 16.6 µM (inactive)
[1]
  GI50: 60.5 µM (inactive)
[2]
  GI50: 28 µM (inactive)
[3]
  GI50: 66.7 µM (inactive)
[4]
  GI50: 56.9 µM (inactive)
[5]
  GI50: 34 µM (inactive)
[6]
  GI50: 41.1 µM (inactive)
[57]
  GI50: 61.4 µM (inactive)
[7]
  GI50: 24.2 µM (inactive)
[8]
  GI50: 48.2 µM (inactive)
[9]
  GI50: 60.5 µM (inactive)
[10]
  GI50: 27.7 µM (inactive)
[11]
  GI50: 42 µM (inactive)
[12]
  GI50: 24.8 µM (inactive)
[13]
  GI50: 54.2 µM (inactive)
[14]
  GI50: 8.43 µM (inactive)
[15]
  GI50: 29 µM (inactive)
[16]
  GI50: 76.4 µM (inactive)
[17]
  GI50: > 100 µM (inactive)
[18]
  GI50: 41 µM (inactive)
[19]
  GI50: 38.6 µM (inactive)
[20]
  GI50: 41.4 µM (inactive)
[21]
  GI50: 32.7 µM (inactive)
[22]
  GI50: 32.9 µM (inactive)
[23]
  GI50: 22.9 µM
[25]
  GI50: > 100 µM (inactive)
[26]
  GI50: 53.6 µM (inactive)
[27]
  GI50: 19.2 µM (inactive)
[28]
  GI50: 87.1 µM (inactive)
[29]
  GI50: 6.84 µM (inactive)
[30]
  GI50: > 100 µM (inactive)
[31]
  GI50: > 100 µM (inactive)
[32]
  GI50: 34.4 µM (inactive)
[33]
  GI50: 84.5 µM (inactive)
[34]
  GI50: 54.8 µM (inactive)
[35]
  GI50: 50.2 µM (inactive)
[58]
  GI50: 24.7 µM (inactive)
[36]
  GI50: 17.5 µM (inactive)
[37]
  GI50: 24.7 µM (inactive)
[38]
  GI50: 62.2 µM (inactive)
[39]
  GI50: 25.2 µM (inactive)
[40]
  GI50: 32.1 µM (inactive)
[41]
  GI50: 20.2 µM (inactive)
[42]
  GI50: 35.4 µM (inactive)
[43]
  GI50: 40.9 µM (inactive)
[44]
  GI50: 36.1 µM (inactive)
[45]
  GI50: 47.5 µM (inactive)
[46]
  GI50: 38.7 µM (inactive)
[47]
  GI50: 18.2 µM (inactive)
[48]
  GI50: 0.847 µM (active)
[49]
  GI50: 2.4 µM (inactive)
[50]
  GI50: 33.3 µM (inactive)
[51]
  GI50: 40 µM (inactive)
[52]
  GI50: 37.9 µM (inactive)
[53]
  GI50: 46.3 µM (inactive)
[54]
  GI50: 25.4 µM (inactive)
[55]
  GI50: 40.6 µM (inactive)
